Assay results taken from PubChem BioAssay AID493062 (The Scripps Research Institute Molecular Screening Center, 2011).

Columns and labels:
2B4/BCL-2 = assay: MCL-1-selective apoptosis induction in 2B4 cells – cell-based, fluorescence, assay provider data, selectivity assay for MCL1-BIM inhibitor project, late-stage follow-up (AID 493062); conditions: 2B4/MCL-1 caspase activation fluorescence
2B4/MCL-1 = assay: as above; conditions: 2B4/MCL-1 caspase activation fluorescence

COc1ccc(Cc2nnc(NC(=O)Cc3ccc4ccccc4c3)s2)cc1OC showed an EC50 (2B4/BCL-2) of over 25 µM and an EC50 (2B4/MCL-1) of over 25 µM.
For Cc1cccc(NC(=O)c2cc(-c3ccc(C)o3)nc3ccccc23)n1, the EC50 (2B4/BCL-2) was 25 µM and the EC50 (2B4/MCL-1) was 40 µM.
O=C(Nc1cccc(F)c1)c1cc(-c2ccco2)nc2ccccc12 gave an EC50 (2B4/BCL-2) of over 25 µM and an EC50 (2B4/MCL-1) of over 25 µM.
O=C(c1cc(-c2ccco2)nc2ccccc12)N1CCN(Cc2ccccc2)CC1 showed an EC50 (2B4/BCL-2) of over 25 µM and an EC50 (2B4/MCL-1) of over 25 µM.
O=C(Nc1ccccc1N1CCOCC1)c1cc(-c2ccco2)nc2ccccc12 showed an EC50 (2B4/BCL-2) of over 25 µM and an EC50 (2B4/MCL-1) of over 25 µM.
In the case of COc1ccc(NC(=O)CN(C)C(=O)c2cc(-c3ccc(C)o3)nc3ccccc23)cc1, the EC50 (2B4/BCL-2) is reported as over 25 µM and the EC50 (2B4/MCL-1) is reported as over 25 µM.
COc1ccc(Cc2nnc(NC(=O)Cc3c[nH]c4ccccc34)s2)cc1OC showed an EC50 (2B4/BCL-2) of over 25 µM and an EC50 (2B4/MCL-1) of over 25 µM.
Cc1ccc(-c2cc(C(=O)NCCN3CCOCC3)c3ccccc3n2)o1 was tested, and the EC50 (2B4/BCL-2) was over 25 µM and the EC50 (2B4/MCL-1) was over 25 µM.
Compound COc1ccc(Cc2nnc(NC(=O)Cc3ccc(Oc4ccccc4)cc3)s2)cc1OC has an EC50 (2B4/BCL-2) of 3.6 µM and an EC50 (2B4/MCL-1) of 4 µM.
Work on CCCCN(C(=O)c1cc(-c2ccco2)nc2ccccc12)c1c(N)n(CCC)c(=O)[nH]c1=O yielded an EC50 (2B4/BCL-2) of over 25 µM and an EC50 (2B4/MCL-1) of over 25 µM.
With Cc1ccc(S(=O)(=O)N(C)C)cc1NC(=O)c1cc(-c2ccco2)nc2ccccc12 the EC50 (2B4/BCL-2) was over 25 µM and the EC50 (2B4/MCL-1) was over 25 µM.
COc1ccc(NC(=O)c2cc(-c3ccco3)nc3ccccc23)cc1 gave an EC50 (2B4/BCL-2) of over 25 µM and an EC50 (2B4/MCL-1) of over 25 µM.
Compound Cc1nnc(NC(=O)c2cc(-c3ccco3)nc3ccccc23)s1 has an EC50 (2B4/BCL-2) of over 25 µM and an EC50 (2B4/MCL-1) of over 25 µM.
For COc1cccc(NC(=O)CN(C)C(=O)c2cc(-c3ccc(C)o3)nc3ccccc23)c1, the EC50 (2B4/BCL-2) was over 25 µM and the EC50 (2B4/MCL-1) was over 25 µM.
With CN(CCOc1ccc(Cl)cc1)C(=O)c1cc(-c2ccco2)nc2ccccc12 the EC50 (2B4/BCL-2) was over 25 µM and the EC50 (2B4/MCL-1) was over 25 µM.
For Cc1ccc(-c2cc(C(=O)N3CCOCC3)c3ccccc3n2)o1, the EC50 (2B4/BCL-2) was over 25 µM and the EC50 (2B4/MCL-1) was over 25 µM.
COc1ccc(Cc2nnc(CC(=O)Nc3cccs3)s2)cc1 was tested, and the EC50 (2B4/BCL-2) was over 25 µM and the EC50 (2B4/MCL-1) was over 25 µM.
COc1ccc(Cc2nnc(NC(=O)Cc3ccsc3)s2)cc1OC showed an EC50 (2B4/BCL-2) of over 25 µM and an EC50 (2B4/MCL-1) of over 25 µM.
COc1ccc(NC(=O)c2cc(-c3ccc(C)o3)nc3ccccc23)c(OC)c1 was tested, and the EC50 (2B4/BCL-2) was over 25 µM and the EC50 (2B4/MCL-1) was over 25 µM.
Cc1ccc(-c2cc(C(=O)N3CC(C)CC(C)C3)c3ccccc3n2)o1 (stereo unspecified) was tested, and the EC50 (2B4/BCL-2) was over 25 µM and the EC50 (2B4/MCL-1) was over 25 µM.
COc1ccc(CCNC(=O)c2cc(-c3ccco3)nc3ccccc23)cc1 gave an EC50 (2B4/BCL-2) of over 25 µM and an EC50 (2B4/MCL-1) of over 25 µM.
Compound COc1ccc(Cc2nnc(NC(=O)Cc3ccccn3)s2)cc1OC has an EC50 (2B4/BCL-2) of over 25 µM and an EC50 (2B4/MCL-1) of over 25 µM.
For CCCCn1c(N)c(N(CCOC)C(=O)c2cc(-c3ccco3)nc3ccccc23)c(=O)[nH]c1=O, the EC50 (2B4/BCL-2) was over 25 µM and the EC50 (2B4/MCL-1) was over 25 µM.
